Source: US20140155406A1, “4-IMIDAZOPYRIDAZIN-1-YL-BENZAMIDES AND 4-IMIDAZOTRIAZIN-1-YL-BENZAMIDES BTK INHIBITORS” (priority 2011, published 2014)

Key:
Type in all cases: biochemical
Lyn enzyme = molecular target: T1, Lyn enzyme (Homo sapiens, UniProt P07948); assay: Lyn enzyme activity, IMAP fluorescence polarization assay; details: 60 min pre-incubation, 2 μM ATP (Km)
T1 construct: purchased Millipore 14-510
Experimental: Lyn enzyme activity is measured using the IMAP (immobilized metal ion affinity-based fluorescence polarization) assay as outlined below.
Lyn enzyme (Millipore catalog#14-510), is diluted to 250 mU/mL in KR buffer (10 mM Tris-HCl, 10 mM MgCl2, 0.01% Tween-20, 0.05% NaN3, 1 mM DTT, 2 mM MnCl2, pH 7.2). Serial dilution log 10 from 2 mM to 63.2 nM of test compounds are made in 100% DMSO. The dilutions in DMSO are then diluted 50-fold in KR-buffer of which 5 μl is used in the assay, leading to a final compound concentration range in the assay from 10 μM to 0.316 nM. 5 μL/well of test compound in KR buffer (final DMSO concentration in the assay is 1%) is mixed with 5 μl/well of 250 mU/mL Lyn enzyme (final concentration in the assay is 62.5 mU/mL). Test compounds and Lyn enzyme are pre-incubated 60 minutes at room temperature, before adding 5 μL/well of 400 nM Fluorescin labeled substrate peptide (Blk/Lyntide substrate, e.g. #R7188/#R7233, Molecular Devices) in KR-buffer. Final peptide substrate concentration in assay is 100 nM. The kinase assay is started by adding 5 μL/well of 8 μM ATP in KR-buffer (final ATP concentration is 2 μM ATP, Km ATP in Lyn IMAP assay). Following incubation for 2 h at room temperature the enzyme reaction is stopped by adding 40 μL/well IMAP Progressive Binding Solution (according to suppliers (Molecular Devices) protocol using 75% 1× buffer A and 25% 1× buffer B with 1:600 Progressive Binding Solution). After 60 min incubation at room temperature in the dark the FP signal is read. Fluorescence at 535 nm is measured using parallel and perpendicular filters to determine differences in rotation due to binding of the phosphorylated substrate peptide to the beads. Values are calculated as percentage of the difference in readout (ΔmPi) of the controls with and without ATP. EC50 values are determined by curve fitting of the experimental results using Activity Base.

Src enzyme = molecular target: T2, Src enzyme (Homo sapiens, UniProt P12931); assay: Src enzyme activity, IMAP fluorescence polarization assay; details: 60 min pre-incubation, 4 μM ATP (Km)
T2 construct: purchased Millipore 14-326
T2 sequence (P12931 whole entry): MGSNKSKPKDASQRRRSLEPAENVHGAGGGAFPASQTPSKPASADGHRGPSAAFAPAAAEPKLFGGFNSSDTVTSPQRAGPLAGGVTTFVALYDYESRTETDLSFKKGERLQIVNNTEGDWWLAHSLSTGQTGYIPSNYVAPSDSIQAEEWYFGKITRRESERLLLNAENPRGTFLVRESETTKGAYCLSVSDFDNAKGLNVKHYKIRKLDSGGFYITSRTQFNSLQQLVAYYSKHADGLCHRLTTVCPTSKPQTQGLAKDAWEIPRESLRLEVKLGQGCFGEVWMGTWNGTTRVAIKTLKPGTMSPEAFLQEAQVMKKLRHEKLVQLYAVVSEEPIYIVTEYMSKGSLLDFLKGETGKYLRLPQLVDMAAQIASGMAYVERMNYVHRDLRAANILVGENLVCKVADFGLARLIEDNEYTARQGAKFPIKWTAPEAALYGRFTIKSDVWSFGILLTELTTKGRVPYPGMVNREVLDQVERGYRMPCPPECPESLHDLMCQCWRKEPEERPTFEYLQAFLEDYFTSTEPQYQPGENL
Experimental: Src enzyme activity is measured using the IMAP (immobilized metal ion affinity-based fluorescence polarization) assay as outlined below.
Src enzyme (Millipore catalog#14-326), is diluted to 0.8 U/mL in KR buffer (10 mM Tris-HCl, 10 mM MgCl2, 0.01% Tween-20, 0.05% NaN3, 1 mM DTT, 2 mM MnCl2, pH 7.2).
Serial dilution log 10 from 2 mM to 63.2 nM of test compounds are made in 100% DMSO. The dilutions in DMSO are then diluted 50-fold in KR-buffer of which 5 μl is used in the assay, leading to a final compound concentration range in the assay from 10 μM to 0.316 nM. 5 μL/well of test compound in KR buffer (final DMSO concentration in the assay is 1%) is mixed with 5 μl/well of 0.8 U/mL Src enzyme (final concentration in the assay is 0.2 U/mL). Test compounds and Src enzyme are pre-incubated 60 minutes at room temperature, before adding 5 μL/well of 400 nM Fluorescin labeled substrate peptide (p34cdc2 substrate peptide, e.g. #R7157/#R7172, Molecular Devices) in KR-buffer. Final peptide substrate concentration in assay is 100 nM. The kinase assay is started by adding 5 μL/well of 16 μM ATP in KR-buffer (final ATP concentration is 4 μM ATP, Km ATP in Src IMAP assay). Following incubation for 2 h at room temperature the enzyme reaction is stopped by adding 40 μL/well IMAP Progressive Binding Solution (according to suppliers (Molecular Devices) protocol using 75% 1× buffer A and 25% 1× buffer B with 1:600 Progressive Binding Solution). After 60 min incubation at room temperature in the dark the FP signal is read. Fluorescence at 535 nm is measured using parallel and perpendicular filters to determine differences in rotation due to binding of the phosphorylated substrate peptide to the beads. Values are calculated as percentage of the difference in readout (ΔmPi) of the controls with and without ATP. EC50 values are determined by curve fitting of the experimental results using Activity Base.

FynT enzyme = molecular target: T3, FynT enzyme (Homo sapiens, UniProt P06241); assay: FynT enzyme activity, IMAP fluorescence polarization assay; details: 60 min pre-incubation, 0.2 μM ATP (Km)
T3 construct: purchased Biomol SE-287
T3 sequence (P06241 1-534 isoform P06241-2): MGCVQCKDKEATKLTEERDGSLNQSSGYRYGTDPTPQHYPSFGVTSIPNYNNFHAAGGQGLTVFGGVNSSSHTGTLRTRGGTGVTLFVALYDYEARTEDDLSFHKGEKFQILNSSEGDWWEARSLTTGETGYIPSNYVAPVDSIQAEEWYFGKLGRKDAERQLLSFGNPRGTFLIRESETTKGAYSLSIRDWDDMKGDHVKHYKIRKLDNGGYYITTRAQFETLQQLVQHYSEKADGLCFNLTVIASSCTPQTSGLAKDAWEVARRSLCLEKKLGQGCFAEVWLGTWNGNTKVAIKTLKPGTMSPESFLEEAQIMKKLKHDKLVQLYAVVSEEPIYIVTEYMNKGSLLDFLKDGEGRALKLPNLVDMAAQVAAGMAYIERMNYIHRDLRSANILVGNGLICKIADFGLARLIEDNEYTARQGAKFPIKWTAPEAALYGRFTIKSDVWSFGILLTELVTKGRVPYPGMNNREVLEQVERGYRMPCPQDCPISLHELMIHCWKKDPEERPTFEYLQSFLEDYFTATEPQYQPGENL
Experimental: FynT enzyme activity is measured using the IMAP (immobilized metal ion affinity-based fluorescence polarization) assay as outlined below.
FynT enzyme (Biomol catalog# SE-287), is diluted to 0.5 μg/mL in KR buffer (10 mM Tris-HCl, 10 mM MgCl2, 0.01% Tween-20, 0.05% NaN3, 1 mM DTT, 2 mM MnCl2, pH 7.2). Serial dilution log 10 from 2 mM to 63.2 nM of test compounds are made in 100% DMSO. The dilutions in DMSO are then diluted 50-fold in KR-buffer of which 5 μl is used in the assay, leading to a final compound concentration range in the assay from 10 μM to 0.316 nM. 5 μL/well of test compound in KR buffer (final DMSO concentration in the assay is 1%) is mixed with 5 μl/well of 0.5 μg/mL FynT enzyme (final concentration in the assay is 125 ng/mL). Test compounds and FynT enzyme are pre-incubated 60 minutes at room temperature, before adding 5 μL/well of 400 nM Fluorescin labeled substrate peptide (p34cdc2 substrate peptide, e.g. #R7157/#R7172, Molecular Devices) in KR-buffer. Final peptide substrate concentration in assay is 100 nM. The kinase assay is started by adding 5 μL/well of 0.8 μM ATP in KR-buffer (final ATP concentration is 0.2 μM ATP, Km ATP in FynT IMAP assay). Following incubation for 2 h at room temperature the enzyme reaction is stopped by adding 40 μL/well IMAP Progressive Binding Solution (according to suppliers (Molecular Devices) protocol using 75% 1× buffer A and 25% 1× buffer B with 1:600 Progressive Binding Solution). After 60 min incubation at room temperature in the dark the FP signal is read. Fluorescence at 535 nm is measured using parallel and perpendicular filters to determine differences in rotation due to binding of the phosphorylated substrate peptide to the beads. Values are calculated as percentage of the difference in readout (ΔmPi) of the controls with and without ATP. EC50 values are determined by curve fitting of the experimental results using Activity Base.

Lck enzyme = molecular target: T4, Lck enzyme (Homo sapiens, UniProt P06239); assay: Lck enzyme activity, IMAP fluorescence polarization assay; details: 60 min pre-incubation, 6 μM ATP (Km)
T4 construct: purchased Millipore 14-442
T4 sequence (P06239 whole entry): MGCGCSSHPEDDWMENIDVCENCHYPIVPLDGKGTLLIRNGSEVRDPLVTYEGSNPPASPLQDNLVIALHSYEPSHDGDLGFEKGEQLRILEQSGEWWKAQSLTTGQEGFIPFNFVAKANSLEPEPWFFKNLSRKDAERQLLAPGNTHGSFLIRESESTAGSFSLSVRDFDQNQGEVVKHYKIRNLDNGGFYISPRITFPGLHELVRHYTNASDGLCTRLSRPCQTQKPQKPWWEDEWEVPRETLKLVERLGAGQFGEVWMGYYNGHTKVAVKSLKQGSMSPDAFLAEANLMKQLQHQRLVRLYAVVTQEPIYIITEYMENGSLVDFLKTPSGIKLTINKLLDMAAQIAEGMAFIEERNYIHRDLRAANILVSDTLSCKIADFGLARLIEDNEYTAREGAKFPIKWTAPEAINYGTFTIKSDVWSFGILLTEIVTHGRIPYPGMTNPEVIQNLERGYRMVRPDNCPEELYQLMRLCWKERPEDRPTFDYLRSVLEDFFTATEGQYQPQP
Experimental: Lck enzyme activity is measured using the IMAP (immobilized metal ion affinity-based fluorescence polarization) assay as outlined below.
Lck enzyme (Millipore catalog#14-442), is diluted to 0.4 U/mL in KR buffer (10 mM Tris-HCl, 10 mM MgCl2, 0.01% Tween-20, 0.05% NaN3, 1 mM DTT, 2 mM MnCl2, pH 7.2). Serial dilution log 10 from 2 mM to 63.2 nM of test compounds are made in 100% DMSO. The dilutions in DMSO are then diluted 50-fold in KR-buffer of which 5 μl is used in the assay, leading to a final compound concentration range in the assay from 10 μM to 0.316 nM. 5 μL/well of test compound in KR buffer (final DMSO concentration in the assay is 1%) is mixed with 5 μl/well of 0.4 U/mL Lck enzyme (final concentration in the assay is 0.1 U/mL). Test compounds and Lck enzyme are pre-incubated 60 minutes at room temperature, before adding 5 μL/well of 400 nM Fluorescin labeled substrate peptide (p34cdc2 substrate peptide, e.g. #R7157/#R7172, Molecular Devices) in KR-buffer. Final peptide substrate concentration in assay is 100 nM. The kinase assay is started by adding 5 μL/well of 24 μM ATP in KR-buffer (final ATP concentration is 6 μM ATP, Km ATP in Lck IMAP assay). Following incubation for 2 h at room temperature the enzyme reaction is stopped by adding 40 μL/well IMAP Progressive Binding Solution (according to suppliers (Molecular Devices) protocol using 75% 1× buffer A and 25% 1× buffer B with 1:600 Progressive Binding Solution). After 60 min incubation at room temperature in the dark the FP signal is read. Fluorescence at 535 nm is measured using parallel and perpendicular filters to determine differences in rotation due to binding of the phosphorylated substrate peptide to the beads. Values are calculated as percentage of the difference in readout (ΔmPi) of the controls with and without ATP. EC50 values are determined by curve fitting of the experimental results using Activity Base.

Measured: EC50

T1 sequence (P07948 whole entry): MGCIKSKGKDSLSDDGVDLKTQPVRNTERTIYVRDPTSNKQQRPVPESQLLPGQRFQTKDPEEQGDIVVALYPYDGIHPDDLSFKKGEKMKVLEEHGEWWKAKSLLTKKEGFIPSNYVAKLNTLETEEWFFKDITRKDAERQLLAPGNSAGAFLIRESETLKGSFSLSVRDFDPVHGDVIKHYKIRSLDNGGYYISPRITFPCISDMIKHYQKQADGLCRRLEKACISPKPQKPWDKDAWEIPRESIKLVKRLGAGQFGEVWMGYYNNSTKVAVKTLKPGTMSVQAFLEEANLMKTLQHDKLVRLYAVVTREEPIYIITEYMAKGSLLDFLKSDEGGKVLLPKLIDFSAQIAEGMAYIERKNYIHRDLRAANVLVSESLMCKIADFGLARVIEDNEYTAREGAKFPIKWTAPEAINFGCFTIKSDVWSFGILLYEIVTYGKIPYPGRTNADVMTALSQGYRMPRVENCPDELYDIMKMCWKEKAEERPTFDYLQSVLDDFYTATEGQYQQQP

CC#CC(=O)N1CCC[C@H]1c1nc(-c2ccc(C(=O)Nc3ccccn3)cc2)c2c(C)nccn12 [Example 1, (S)-4-(3-(1-But-2-ynoylpyrrolidin-2-yl)-8-methylimidazo[1,5-a]pyrazin-1-yl)-N-(pyridin-2-yl)benzamide]
≥ 1 µM: all assays above

CCCc1ccnc(NC(=O)c2ccc(-c3nc([C@@H]4CCCCN4C(=O)c4ccnc(Cl)n4)n4ccnc(C)c34)cc2)c1 [Example 5, (S)-4-(3-(1-(2-chloropyrimidine-4-carbonyl)piperidin-2-yl)-8-methylimidazo[1,5-a]pyrazin-1-yl)-N-(4-propylpyridin-2-yl)benzamide]
≥ 1 µM: all assays above

C=CC(=O)N1CCC[C@H]1c1nc(-c2ccc(C(=O)Nc3cc(C)ccn3)cc2)c2c(C)nccn12 [Example 11, (S)-4-(3-(1-Acryloylpyrrolidin-2-yl)-8-methylimidazo[1,5-a]pyrazin-1-yl)-N-(4-methylpyridin-2-yl)benzamide]
≥ 1 µM: all assays above

C=CC(=O)N1CCC[C@H]1c1nc(-c2ccc(C(=O)Nc3cc(OC)ccn3)cc2)c2c(C)nccn12 [Example 12, (S)-4-(3-(1-acryloylpyrrolidin-2-yl)-8-methylimidazo[1,5-a]pyrazin-1-yl)-N-(4-methoxypyridin-2-yl)benzamide]
≥ 1 µM: all assays above

C=CC(=O)N1CCC[C@H]1c1nc(-c2ccc(C(=O)Nc3cc(CC)ccn3)cc2)c2c(C)nccn12 [Example 14, (S)-4-(3-(1-Acryloylpyrrolidin-2-yl)-8-methylimidazo[1,5-a]pyrazin-1-yl)-N-(4-ethylpyridin-2-yl)benzamide]
≥ 1 µM: all assays above

CC#CC(=O)N1CCC[C@H]1c1nc(-c2ccc(C(=O)Nc3cc(OC)ccn3)cc2)c2c(C)nccn12 [Example 16, (S)-4-(3-(1-but-2-ynoylpyrrolidin-2-yl)-8-methylimidazo[1,5-a]pyrazin-1-yl)-N-(4-methoxypyridin-2-yl)benzamide]
≥ 1 µM: all assays above

Cc1nccn2c([C@@H]3CCCCN3C(=O)c3ccnc(Cl)n3)nc(-c3ccc(C(=O)Nc4cc(C(F)(F)F)ccn4)cc3)c12 [Example 17, (S)-4-(3-(1-(2-chloropyrimidine-4-carbonyl)piperidin-2-yl)-8-methylimidazo[1,5-a]pyrazin-1-yl)-N-(4-(trifluoromethyl)pyridin-2-yl)benzamide]
≥ 1 µM: all assays above

CC#CC(=O)N1CCC[C@H]1c1nc(-c2ccc(C(=O)Nc3cc(CC)ccn3)cc2)c2c(C)nccn12 [Example 20, (S)-4-(3-(1-but-2-ynoylpyrrolidin-2-yl)-8-methylimidazo[1,5-a]pyrazin-1-yl)-N-(4-ethylpyridin-2-yl)benzamide]
≥ 1 µM: all assays above

CC#CC(=O)N1CCC[C@H]1c1nc(-c2ccc(C(=O)Nc3cc(C(F)(F)F)ccn3)cc2)c2c(C)nccn12 [Example 26, (S)-4-(3-(1-but-2-ynoylpyrrolidin-2-yl)-8-methylimidazo[1,5-a]pyrazin-1-yl)-N-(4-(trifluoromethyl)pyridin-2-yl)benzamide]
≥ 1 µM: all assays above
